Results as given in ChEMBL document CHEMBL1151401, “Plant anticancer agents. XII. Isolation and structure elucidation of new cytotoxic quinones from Tabebuia cassinoides” (1982).
Converted amounts (≈) assume the structure as drawn. The source made the active and inactive calls. No cut-off for these calls is given here.

Columns and labels:
KB = test: Cytotoxicity against human KB cells; type: functional; conditions: read-out: ED50 (the source's name)
P388 = test: In vivo cytotoxicity against mouse P388 cells at upto 35 mg/kg; type: functional, organism-based; design: dose 35 mg/kg

Row | Compound | EC50 (KB) [µg/mL] | Activity (P388)
1 | CC(O)c1cc2c(o1)C(=O)c1ccccc1C2=O (stereo not given) | 2 (≈ 8.26 µM) | 
2 | CC(O)c1cc2c(o1)C(=O)c1c(O)cccc1C2=O (stereo not given) | 1 (≈ 3.87 µM) | 
3 | CC(C)=CCC1=C(O)C(=O)c2ccccc2C1=O [LAPACHOL] | 4.4 (≈ 18.2 µM) | 
4 | CC(=O)c1cc2c(o1)C(=O)c1ccccc1C2=O [NAPABUCASIN] | 1 (≈ 4.16 µM) | inactive
